Data from patent publication US9351971B2, “Substituted 2,2′-biphenazines for treating diseases” (Eutropics Pharmaceuticals, Inc., priority 2010, dated 2016).

Tested on: AML-3 acute myelogenous leukemia cell line
Test: Cell viability MTS assay, AML-3
Type: cell-based
Conditions: Homo sapiens, AML3, 48 hours, read-out: EC50, cell killing in AML-3
Experimental: The lymphoid derived cell lines DHL-6 and DHL-10 were obtained from Anthony Letai of the Dana Father Cancer Research Institute, Boston, Mass. The […] derived cell line NCP-H929 was obtained irons, the NIH/NCI cell repository. AML-3 cells were obtained from Dr. Michael Andreef (MD Anderson Cancer Center, Houston, Tex.). Cells were grown in RPMI 1640 medium (GIBCO-BRL) supplemented with Pen-strep-glutamine (Gibco 10378) and 5% fetal bovine serum.
Cells were expanded in tissue culture in appropriate media and then subcultured into 96-well plates at a seeding density of 20,000-40,000 cells per well, and cells were treated with one or more compounds that were titrated info appropriate medium with FCS. Cell lines were treated with compound A at concentrations ranging from 25 μM to 25 nM. The BH3-mimetic obatoclax (Nguyen M et al. (2007), Proc. Natl. Acad. Sci. USA 104:19512-19517) was also tested against the SUDHL-6, SUDHL-10, and NCI-H929 cell lines. Cells were treated for 48 hours and scored for viability using the MTS assay (Promega). Growth inhibition was indicated as a percentage of control cell growth. Growth was determined by measuring the A570 (control cells)—A570 (treated cells)/A570 (control cells). EC50 values were calculated using Graphpad Prizm software.

COC(=O)c1ccc(O)c2nc3c(C=O)c(O)c(-c4c(O)c(C=O)c5nc6c(O)ccc(C(=O)OC)c6nc5c4O)c(O)c3nc12 [II-19, dimethyl 4,4′-diformyl-1,1′,3,3′,6,6′-hexahydroxy-[2,2′-biphenazine]-9,9′-dicarboxylate]
EC50: 10 µM
